Reference: patent US9468212B2, “Antifungal compositions” (DSM IP ASSETS B.V., priority 2013, dated 2016)
Several values for one entry are separate records, joined by “and”; a condition that tells them apart may be missing. Identical values can stand only once.

Legend:
Botrytis cinerea = assay: Treatment of strawberries: wounded, inoculated with Botrytis cinerea, dipped in antifungal composition (Examples 5, 6); assay type: in vivo; details: 20° C.
Method: Twelve fresh, organic strawberries were used per treatment. Each strawberry was wounded with a 0.5 mm long cut and each wound was inoculated with 10 μl of a Botrytis cinerea suspension containing 1×10^5 of spores/ml. After a 3-hour incubation period at 20° C., each strawberry was dipped individually for 1 minute in a freshly prepared aqueous antifungal composition comprising either 500 ppm natamycin (DSM Food Specialties, Delft, The Netherlands), 500 ppm fludioxonil or both. Each antifungal composition also comprised 3.2% (w/w) beeswax, 0.8% (w/w) glycerol, 0.7% (w/w) polyoxyethylene sorbitan monostearate (Tween 60), 0.1% (w/w) polyoxyethylene sorbitan monooleate (Tween 80), 0.05% (w/w) methylhydroxyethyl-cellulose (MH EC), 0.03% (w/w) anti-foaming agent, 0.02% (w/w) xanthan gum, 0.02% (w/w) citric acid, 0.01% (w/w) lactic acid and 0.01% potassium sorbate. A composition without natamycin or fludioxonil was used as control. […] The treated strawberries were incubated in a closed box in the dark at 20° C. for 19 days.
The expected antifungal activity (E in %) of the combined antifungal composition comprising both active ingredients was calculated according to the Colby equation (Colby, 1967): E=X+Y−[(X·Y)/100] wherein X and Y are the observed antifungal activities (in %) of the individual active ingredients X and Y, respectively.
The experiment was conducted as described in Example 5, except for the fact that each wounded and inoculated strawberry was dipped individually for 1 minute in a freshly prepared aqueous antifungal composition comprising either 250 ppm natamycin (DSM Food Specialties, Delft, The Netherlands), 250 ppm fludioxonil or both. During incubation, the treated strawberries were assessed on mould growth according to the two methods described in Example 5.

mould = assay: Treatment of pineapples: mould incidence on the pineapple rinds after storage (Example 11); assay type: in vivo; details: 200 ppm natamycin, 250 ppm fludioxonil or both, 28 days of storage (21 days at 7.5° C., 7 days at 18 to 20° C.)
Description: In this experiment pineapples were selected from a packing plant located in Costa Rica. These pineapples were selected based on uniformity in color and size. Furthermore, they were free from visual mold growth or any other visual damage caused by plagues or diseases.
The surface of the pineapples was first disinfected by immersion of the fruits for one minute in a solution comprising 150 ppm sodium hypochlorite. Next, the fruits were dried and thereafter the antimicrobial compositions were applied on the fruits using a modified watering can. This shower, to simulate the wax cascade used in pineapple packing plants, covered the rind of the fruits with a thin film of wax. The crown of the pineapple was not treated. […]
After 28 days, the mould incidence on the pineapple rinds was assessed using the following method. The number of pineapples with visual mould incidence on the rind per total of 40 pineapples was counted for all compositions. Subsequently, the antifungal activity (in %) of the individual and combined active ingredients (compositions B, C and D) was determined by calculating the reduction in mould incidence observed on the pineapple rind compared to composition A. The observed antifungal activity of composition D was compared to the expected antifungal activity of composition D according to the Colby method (Colby, 1967) as described in Example 5.

[1] = 250 ppm natamycin, 250 ppm fludioxonil or both, 6 days
[2] = 250 ppm natamycin, 250 ppm fludioxonil or both, 7 days
[3] = 250 ppm natamycin, 250 ppm fludioxonil or both, 8 days
[4] = 250 ppm natamycin, 250 ppm fludioxonil or both, 9 days
[5] = 250 ppm natamycin, 250 ppm fludioxonil or both, 10 days
[6] = 250 ppm natamycin, 250 ppm fludioxonil or both, 11 days
[7] = 250 ppm natamycin, 250 ppm fludioxonil or both, 12 days
[8] = 250 ppm natamycin, 250 ppm fludioxonil or both, 13 days
[9] = 250 ppm natamycin, 250 ppm fludioxonil or both, 14 days
[10] = 250 ppm natamycin, 250 ppm fludioxonil or both, 15 days
[11] = 250 ppm natamycin, 250 ppm fludioxonil or both, 16 days
[12] = 250 ppm natamycin, 250 ppm fludioxonil or both, 18 days
[13] = 250 ppm natamycin, 250 ppm fludioxonil or both, 19 days
[14] = 250 ppm natamycin, 250 ppm fludioxonil or both, Day 6-8
[15] = 250 ppm natamycin, 250 ppm fludioxonil or both, Day 9
[16] = 250 ppm natamycin, 250 ppm fludioxonil or both, Day 10
[17] = 250 ppm natamycin, 250 ppm fludioxonil or both, Day 11
[18] = 250 ppm natamycin, 250 ppm fludioxonil or both, Day 12
[19] = 250 ppm natamycin, 250 ppm fludioxonil or both, Day 13
[20] = 250 ppm natamycin, 250 ppm fludioxonil or both, Day 14
[21] = 250 ppm natamycin, 250 ppm fludioxonil or both, Day 15
[22] = 500 ppm natamycin, 500 ppm fludioxonil or both, 7 days
[23] = 500 ppm natamycin, 500 ppm fludioxonil or both, 8 days
[24] = 500 ppm natamycin, 500 ppm fludioxonil or both, 9 days
[25] = 500 ppm natamycin, 500 ppm fludioxonil or both, 10 days
[26] = 500 ppm natamycin, 500 ppm fludioxonil or both, 11 days
[27] = 500 ppm natamycin, 500 ppm fludioxonil or both, 12 days
[28] = 500 ppm natamycin, 500 ppm fludioxonil or both, 13 days
[29] = 500 ppm natamycin, 500 ppm fludioxonil or both, 14 days
[30] = 500 ppm natamycin, 500 ppm fludioxonil or both, 15 days
[31] = 500 ppm natamycin, 500 ppm fludioxonil or both, 16 days
[32] = 500 ppm natamycin, 500 ppm fludioxonil or both, 18 days
[33] = 500 ppm natamycin, 500 ppm fludioxonil or both, 19 days
[34] = 500 ppm natamycin, 500 ppm fludioxonil or both, Day 7
[35] = 500 ppm natamycin, 500 ppm fludioxonil or both, Day 8
[36] = 500 ppm natamycin, 500 ppm fludioxonil or both, Day 9
[37] = 500 ppm natamycin, 500 ppm fludioxonil or both, Day 10-11
[38] = 500 ppm natamycin, 500 ppm fludioxonil or both, Day 12
[39] = 500 ppm natamycin, 500 ppm fludioxonil or both, Day 13
[40] = 500 ppm natamycin, 500 ppm fludioxonil or both, Day 14
[41] = 500 ppm natamycin, 500 ppm fludioxonil or both, Day 15
[42] = 500 ppm natamycin, 500 ppm fludioxonil or both, Day 16-17

## N#Cc1c[nH]cc1-c1cccc2c1OC(F)(F)O2 [Fludioxonil, fludioxonil]
Botrytis cinerea; [1]
  Observed antifungal activity O (%): 89%
Botrytis cinerea; [2]
  Observed antifungal activity O (%): 81%
Botrytis cinerea; [3]
  Observed antifungal activity O (%): 81%
Botrytis cinerea; [4]
  Observed antifungal activity O (%): 69%
Botrytis cinerea; [5]
  Observed antifungal activity O (%): 55%
Botrytis cinerea; [6]
  Observed antifungal activity O (%): 44%
Botrytis cinerea; [7]
  Observed antifungal activity O (%): 32%
Botrytis cinerea; [8]
  Observed antifungal activity O (%): 26%
Botrytis cinerea; [9]
  Observed antifungal activity O (%): 19%
Botrytis cinerea; [10]
  Observed antifungal activity O (%): 11%
Botrytis cinerea; [11]
  Observed antifungal activity O (%): 6.0%
Botrytis cinerea; [12]
  Observed antifungal activity O (%): 1.2%
Botrytis cinerea; [13]
  Observed antifungal activity O (%): 0%
Botrytis cinerea; [14]
  Number of moulded strawberries/total number of 12 strawberries: 5 and 5/12
Botrytis cinerea; [15]
  Number of moulded strawberries/total number of 12 strawberries: 8 and 8/12
Botrytis cinerea; [16]
  Number of moulded strawberries/total number of 12 strawberries: 9 and 9/12
Botrytis cinerea; [17]
  Number of moulded strawberries/total number of 12 strawberries: 10 and 10/12
Botrytis cinerea; [18]
  Number of moulded strawberries/total number of 12 strawberries: 12 and 12/12
Botrytis cinerea; [19]
  Number of moulded strawberries/total number of 12 strawberries: 12 and 12/12
Botrytis cinerea; [20]
  Number of moulded strawberries/total number of 12 strawberries: 12 and 12/12
Botrytis cinerea; [21]
  Number of moulded strawberries/total number of 12 strawberries: 12 and 12/12
Botrytis cinerea; [22]
  Observed antifungal activity O (%): 90%
Botrytis cinerea; [23]
  Observed antifungal activity O (%): 80%
Botrytis cinerea; [24]
  Observed antifungal activity O (%): 67%
Botrytis cinerea; [25]
  Observed antifungal activity O (%): 56%
Botrytis cinerea; [26]
  Observed antifungal activity O (%): 52%
Botrytis cinerea; [27]
  Observed antifungal activity O (%): 44%
Botrytis cinerea; [28]
  Observed antifungal activity O (%): 33%
Botrytis cinerea; [29]
  Observed antifungal activity O (%): 24%
Botrytis cinerea; [30]
  Observed antifungal activity O (%): 17%
Botrytis cinerea; [31]
  Observed antifungal activity O (%): 13%
Botrytis cinerea; [32]
  Observed antifungal activity O (%): 4.8%
Botrytis cinerea; [33]
  Observed antifungal activity O (%): 3.6%
Botrytis cinerea; [34]
  Number of moulded strawberries/total number of 12 strawberries: 3 and 3/12
Botrytis cinerea; [35]
  Number of moulded strawberries/total number of 12 strawberries: 5 and 5/12
Botrytis cinerea; [36]
  Number of moulded strawberries/total number of 12 strawberries: 8 and 8/12
Botrytis cinerea; [37]
  Number of moulded strawberries/total number of 12 strawberries: 9 and 9/12
Botrytis cinerea; [38]
  Number of moulded strawberries/total number of 12 strawberries: 9 and 9/12
Botrytis cinerea; [39]
  Number of moulded strawberries/total number of 12 strawberries: 11 and 11/12
Botrytis cinerea; [40]
  Number of moulded strawberries/total number of 12 strawberries: 12 and 12/12
Botrytis cinerea; [41]
  Number of moulded strawberries/total number of 12 strawberries: 12 and 12/12
Botrytis cinerea; [42]
  Number of moulded strawberries/total number of 12 strawberries: 12 and 12/12
mould
  Observed antifungal activity O (%): 90%

## C[C@@H]1C/C=C/C=C/C=C/C=C/[C@H](O[C@@H]2O[C@H](C)[C@@H](O)[C@H](N)[C@@H]2O)C[C@@H]2O[C@](O)(C[C@@H](O)C[C@H]3O[C@@H]3/C=C/C(=O)O1)C[C@H](O)[C@H]2C(=O)O [Natamycin, natamycin]
Botrytis cinerea; [1]
  Observed antifungal activity O (%): 23%
Botrytis cinerea; [2]
  Observed antifungal activity O (%): 23%
Botrytis cinerea; [3]
  Observed antifungal activity O (%): 18%
Botrytis cinerea; [4]
  Observed antifungal activity O (%): 13%
Botrytis cinerea; [5]
  Observed antifungal activity O (%): 4.8%
Botrytis cinerea; [6]
  Observed antifungal activity O (%): 4.8%
Botrytis cinerea; [7]
  Observed antifungal activity O (%): 1.2%
Botrytis cinerea; [8]
  Observed antifungal activity O (%): 1.2%
Botrytis cinerea; [9]
  Observed antifungal activity O (%): 1.2%
Botrytis cinerea; [10]
  Observed antifungal activity O (%): 0%
Botrytis cinerea; [11]
  Observed antifungal activity O (%): 0%
Botrytis cinerea; [12]
  Observed antifungal activity O (%): 0%
Botrytis cinerea; [13]
  Observed antifungal activity O (%): 0%
Botrytis cinerea; [14]
  Number of moulded strawberries/total number of 12 strawberries: 11 and 11/12
Botrytis cinerea; [15]
  Number of moulded strawberries/total number of 12 strawberries: 11 and 11/12
Botrytis cinerea; [16]
  Number of moulded strawberries/total number of 12 strawberries: 12 and 12/12
Botrytis cinerea; [17]
  Number of moulded strawberries/total number of 12 strawberries: 12 and 12/12
Botrytis cinerea; [18]
  Number of moulded strawberries/total number of 12 strawberries: 12 and 12/12
Botrytis cinerea; [19]
  Number of moulded strawberries/total number of 12 strawberries: 12 and 12/12
Botrytis cinerea; [20]
  Number of moulded strawberries/total number of 12 strawberries: 12 and 12/12
Botrytis cinerea; [21]
  Number of moulded strawberries/total number of 12 strawberries: 12 and 12/12
Botrytis cinerea; [22]
  Observed antifungal activity O (%): 11%
Botrytis cinerea; [23]
  Observed antifungal activity O (%): 14%
Botrytis cinerea; [24]
  Observed antifungal activity O (%): 4.8%
Botrytis cinerea; [25]
  Observed antifungal activity O (%): 2.4%
Botrytis cinerea; [26]
  Observed antifungal activity O (%): 2.4%
Botrytis cinerea; [27]
  Observed antifungal activity O (%): 0%
Botrytis cinerea; [28]
  Observed antifungal activity O (%): 0%
Botrytis cinerea; [29]
  Observed antifungal activity O (%): 0%
Botrytis cinerea; [30]
  Observed antifungal activity O (%): 0%
Botrytis cinerea; [31]
  Observed antifungal activity O (%): 0%
Botrytis cinerea; [32]
  Observed antifungal activity O (%): 0%
Botrytis cinerea; [33]
  Observed antifungal activity O (%): 0%
Botrytis cinerea; [34]
  Number of moulded strawberries/total number of 12 strawberries: 12 and 12/12
Botrytis cinerea; [35]
  Number of moulded strawberries/total number of 12 strawberries: 12 and 12/12
Botrytis cinerea; [36]
  Number of moulded strawberries/total number of 12 strawberries: 12 and 12/12
Botrytis cinerea; [37]
  Number of moulded strawberries/total number of 12 strawberries: 12 and 12/12
Botrytis cinerea; [38]
  Number of moulded strawberries/total number of 12 strawberries: 12 and 12/12
Botrytis cinerea; [39]
  Number of moulded strawberries/total number of 12 strawberries: 12 and 12/12
Botrytis cinerea; [40]
  Number of moulded strawberries/total number of 12 strawberries: 12 and 12/12
Botrytis cinerea; [41]
  Number of moulded strawberries/total number of 12 strawberries: 12 and 12/12
Botrytis cinerea; [42]
  Number of moulded strawberries/total number of 12 strawberries: 12 and 12/12
mould
  Observed antifungal activity O (%): 35%
